Patent US20230286973A1, “PROTEIN SECRETION INHIBITORS” (KEZAR LIFE SCIENCES, priority 2020, published 2023)

How the values were obtained:
[1] = test system: PD1-ss+10aa/Gaussia Luciferase; assay: Dox-Induced PD1-ss-Gluc Assay; assay type: cell-based; conditions: 24 hr Dox induction; 293FRT/TO cells; mean; read-out: 24 hr Dox Inducible PD1ssGluc 293FRT/TO: Mean IC50
How it was run: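 Stable Flp-In 293 T-REx cells carried a doxycycline-inducible construct of Gaussia luciferase fused to the PD1 signal sequence plus 10 amino acids. Cells were plated the day before, then treated with compound dilutions in DMSO/media containing doxycycline at 37 °C, 5% CO2.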

[2] = test system: TNFα-FL/Gaussia Luciferase; assay: Dox Induced TNFα-FL-Gluc Assay; assay type: cell-based; conditions: for IC50: 24 hr Dox induction, 293FRT/TO cells, mean, read-out: 24 hr Dox Inducible TNFaFLGluc 293FRT/TO: Mean IC50; for 24 hr Dox Inducible TNFaFLGluc 293FRT/TO: TNF/PD1: ratio of TNFaFLGluc IC50 to PD1ssGluc IC50, '<=>' given where both are I.A.
How it was run: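 Hygromycin/blasticidin-selected Flp-In 293 T-REx cells, TNFα-FL/Gaussia luciferase fusion under T-REx control; overnight plating, then compound in DMSO/media with doxycycline at 37 °C, 5% CO2; stereo-undefined structures tested as mixtures.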

[3] = test system: HER3-ss+4aa/Gaussia Luciferase; assay: Dox-Induced Her3-ss-Gluc Assay; assay type: cell-based; conditions: 24 hr Dox induction; 293FRT/TO cells; mean; read-out: 24 hr Dox Inducible Her3(ss + 4)Gluc 293FRT/TO: Mean IC50
How it was run: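 Doxycycline-inducible HER3 signal sequence+4aa/Gaussia luciferase construct, stably integrated in Flp-In 293 T-REx cells; compound dilutions applied with doxycycline at 37° C., 5% CO2.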

[4] = test system: IL-2-FL/Gaussia Luciferase; assay: Dox Induced IL2-FL-Gluc Assay; assay type: cell-based; conditions: for IC50: 24 hr Dox induction, 293FRT/TO cells, mean, read-out: 24 hr Dox Inducible IL2FLGluc 293FRT/TO: Mean IC50; for 24 hr Dox Inducible IL2FLGluc 293FRT/TO: IL2/PD1: ratio of IL2FLGluc IC50 to PD1ssGluc IC50, '<=>' given where both are I.A.
How it was run: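 A hygromycin- and blasticidin-resistant 293 T-REx clone carrying inducible IL-2–Gaussia luciferase (full-length IL-2, residues 1-153) serves as the cell system. After overnight plating, the cells get test compounds together with doxycycline in DMSO/media and are incubated at 37° C, 5% CO2.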

[5] = test system: multiple myeloma cell line NCI-H929; assay: H929 Cell Viability Assay; assay type: cell-based, human; conditions: Homo sapiens, NCI-H929, 48 h, NCI-H929 cells, Celltiter-Glo
How it was run: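 A 48-hour compound treatment of cells in 10% FBS RPMI medium was followed by luciferase-based viability quantification.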

[6] = test system: multiple myeloma cell line U266B1; assay: U266 Cell Viability Assay; assay type: cell-based, human; conditions: Homo sapiens, U-266, 48 h, U266B1 cells, Celltiter-Glo
How it was run: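 After growth in serum-supplemented RPMI 1640, cells received serially diluted compound in DMSO/media and were kept 48 hours before a CellTiter-Glo luminescence readout.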

[7] = Liver Microsome Stability Assay (rat); conditions: rat liver microsomes, with NADPH, 1.0 uM compound
Experimental: (§1) Stability of a compound was assessed in the presence of liver microsomes from various sources—mouse, rat, monkey and human liver microsomes. 1.0 uM compound, 0.4% DMSO in 0.1 M Potassium Phosphate with 1.0 mg/mL liver microsomes, were incubated at 37° C. with or without 1 mM NADPH. The samples were quenched at 0, and 30 minutes.

[8] = Liver Microsome Stability Assay (mouse); conditions: mouse liver microsomes, with NADPH, 1.0 uM compound
Experimental: as §1

[9] = Liver Microsome Stability Assay (human); conditions: human liver microsomes, with NADPH, 1.0 uM compound
Experimental: as §1

[10] = Liver Microsome Stability Assay (monkey); conditions: monkey liver microsomes, with NADPH, 1.0 uM compound
Experimental: as §1

Row | SMILES | IC50 [1] | IC50 [2] | IC50 [3] | IC50 [4] | EC50 [5] | EC50 [6] | Liver Microsome Stability (Multiple Species): Rat - % Remaining after 30 min w/NADPH [7] | Liver Microsome Stability (Multiple Species): Mouse - % Remaining after 30 min w/NADPH [8] | Liver Microsome Stability (Multiple Species): Human - % Remaining after 30 min w/NADPH [9] | Liver Microsome Stability (Multiple Species): Monkey - % Remaining after 30 min w/NADPH [10] | 24 hr Dox Inducible TNFaFLGluc 293FRT/TO: TNF/PD1 [2] | 24 hr Dox Inducible IL2FLGluc 293FRT/TO: IL2/PD1 [4]
1 | Cn1cccc1C(=O)Nc1nc([C@H]2CCCN2c2ccccc2)cs1 [Compound C17, (R)-1-methyl-N-(4-(1-phenylpyrrolidin-2-yl)thiazol-2-yl)-1H-pyrrole-2-carboxamide] | 22.3 µM | > 25 µM | > 25 µM | 6.75 µM | > 25 µM | > 25 µM | 10.3% | 9.27% | 58.7% | 30.9% | >1.12 | 0.3
2 | NC(=O)CCCCn1cccc1C(=O)Nc1nc([C@H]2CCCN2c2ccccc2)cs1 [Compound C58] | 7.88 µM | > 25 µM | 9.1 µM | > 25 µM | > 25 µM | > 25 µM | 34.7% | 17% | 35.7% | 27.4% | >3.17 | 3.2
3 | CN(C)C(=O)CCn1cccc1C(=O)Nc1nc([C@H]2CCCN2c2ccccc2)cs1 [Compound C59, (R)-1-(3-(dimethylamino)-3-oxopropyl)-N-(4-(1-phenylpyrrolidin-2-yl)thiazol-2-yl)-1H-pyrrole-2-carboxamide] | 7.98 µM | > 25 µM | 12.2 µM | > 25 µM | > 25 µM | > 25 µM | 11.5% | 3.23% | 0.87% | 2.48% | >3.13 | 3.1
4 | CN(C)C(=O)CCCCn1cccc1C(=O)Nc1nc([C@H]2CCCN2c2ccccc2)cs1 [Compound C60, (R)-1-(5-(dimethylamino)-5-oxopentyl)-N-(4-(1-phenylpyrrolidin-2-yl)thiazol-2-yl)-1H-pyrrole-2-carboxamide] | 8.59 µM | > 25 µM | > 25 µM | > 25 µM | > 25 µM | > 25 µM | 6.4% | 0.25% | 0.05% | 0.09% | >2.91 | 2.9
5 | CN(C)C(=O)CCCn1cccc1C(=O)Nc1nc([C@H]2CCCN2c2ccccc2)cs1 [Compound C61, (R)-1-(4-(dimethylamino)-4-oxobutyl)-N-(4-(1-phenylpyrrolidin-2-yl)thiazol-2-yl)-1H-pyrrole-2-carboxamide] | 8.96 µM | > 25 µM | 20.4 µM | 16.7 µM | > 25 µM | > 25 µM | 3.4% | 0.16% | 0.27% | 0.03% | >2.79 | 1.9

Now those with a lower IC50 [1], led by results:

Row | IC50 [1] | IC50 [2] | IC50 [3] | IC50 [4] | EC50 [5] | EC50 [6] | Liver Microsome Stability (Multiple Species): Rat - % Remaining after 30 min w/NADPH [7] | Liver Microsome Stability (Multiple Species): Mouse - % Remaining after 30 min w/NADPH [8] | Liver Microsome Stability (Multiple Species): Human - % Remaining after 30 min w/NADPH [9] | Liver Microsome Stability (Multiple Species): Monkey - % Remaining after 30 min w/NADPH [10] | SMILES | 24 hr Dox Inducible TNFaFLGluc 293FRT/TO: TNF/PD1 [2] | 24 hr Dox Inducible IL2FLGluc 293FRT/TO: IL2/PD1 [4]
6 | 5.09 µM | > 25 µM | 17.5 µM | 7.65 µM | 24.1 µM | > 25 µM | 8.52% | 12.7% | 15.8% | 4.38% | COCCCCn1cccc1C(=O)Nc1nc([C@H]2CCCN2c2ccccc2)cs1 [Compound C23, (R)-1-(4-methoxybutyl)-N-(4-(1-phenylpyrrolidin-2-yl)thiazol-2-yl)-1H-pyrrole-2-carboxamide] | >4.91 | 1.5
7 | 0.0146 µM | 0.266 µM | 0.0387 µM | 0.0719 µM | 1.9 µM | > 25 µM | 60.2% | 62.6% | 63.8% | 23.6% | Cc1ccc(N2CCC[C@@H]2c2csc(NC(=O)c3cccn3CC3CCOCC3)n2)cc1 [Compound C53, (R)-1-((tetrahydro-2H-pyran-4-yl)methyl)-N-(4-(1-(p-tolyl)pyrrolidin-2-yl)thiazol-2-yl)-1H-pyrrole-2-carboxamide] | 18.2 | 4.9
8 | 0.132 µM | 1.79 µM | 0.272 µM | 0.479 µM | 6.53 µM | > 25 µM | 67.6% | 99.1% | 77.9% | 46.8% | O=C(Nc1nc([C@H]2CCCN2c2ccc(OC(F)(F)F)cc2)cs1)c1cccn1CC1CCOCC1 [Compound C54, (R)-1-((tetrahydro-2H-pyran-4-yl)methyl)-N-(4-(1-(4-(trifluoromethoxy)phenyl)pyrrolidin-2-yl)thiazol-2-yl)-1H-pyrrole-2-carboxamide] | 13.5 | 3.6
9 | 0.168 µM | 2.56 µM | 0.374 µM | 0.74 µM | 20.1 µM | > 25 µM | 22.5% | 22.7% | 26.7% | 6.6% | O=C(Nc1nc([C@H]2CCCN2c2ccccc2)cs1)c1cccn1CC1CCOCC1 [Compound C55, (R)-N-(4-(1-phenylpyrrolidin-2-yl)thiazol-2-yl)-1-((tetrahydro-2H-pyran-4-yl)methyl)-1H-pyrrole-2-carboxamide] | 15.3 | 4.4
10 | 1.75 µM | 19.2 µM | 3.27 µM | 4.67 µM | > 25 µM | > 25 µM | 10.9% | 21% | 24.4% | 2.02% | O=C(Nc1nc([C@H]2CCCN2c2ccccc2)cs1)c1cccn1CC1CCOC1 (stereo partly drawn) [Compound C56, N-(4-((R)-1-phenylpyrrolidin-2-yl)thiazol-2-yl)-1-((tetrahydrofuran-3-yl)methyl)-1H-pyrrole-2-carboxamide] | 11 | 2.7
